Data published in ChEMBL document CHEMBL1201862, “PubChem BioAssay data set” (2004).
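96-well plates; 48 h exposure; 5 concentrations. Endpoints by linear interpolation between flanking doses. Not reached: highest tested concentration assigned. Here, GI50 denotes the concentration required for 50% inhibition of growth.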 Activity calls are given as the source filed them. Rule as the data show it: active = GI50 up to about 1.1 µM and inactive = higher.

What was measured:
Test in all cases: DTP human tumour cell line panel, 48 h
786-0 = test system: 786-0
A498 = test system: A498
A549 = test system: A549
ACHN = test system: ACHN
CAKI-1 = test system: CAKI-1
CCRF-CEM = test system: CCRF-CEM
COLO 205 = test system: COLO 205
DLD-1 = test system: DLD-1
DMS-114 = test system: DMS-114
DMS-273 = test system: DMS-273
EKVX = test system: EKVX
HCC 2998 = test system: HCC 2998
HCT-116 = test system: HCT-116
HCT-15 = test system: HCT-15
HL-60 = test system: HL-60
HOP-18 = test system: HOP-18
HOP-62 = test system: HOP-62
HOP-92 = test system: HOP-92
HT-29 = test system: HT-29
IGROV-1 = test system: IGROV-1
K562 = test system: K562
KM-20L2 = test system: KM-20L2
KM12 = test system: KM12
LOX IMVI = test system: LOX IMVI
LXFL 529 = test system: LXFL 529
M14 = test system: M14
M19-MEL = test system: M19-MEL
MOLT-4 = test system: MOLT-4
Malme-3M = test system: Malme-3M
NCI-H226 = test system: NCI-H226
NCI-H23 = test system: NCI-H23
NCI-H460 = test system: NCI-H460
NCI-H522 = test system: NCI-H522
OVCAR-3 = test system: OVCAR-3
OVCAR-4 = test system: OVCAR-4
OVCAR-5 = test system: OVCAR-5
OVCAR-8 = test system: OVCAR-8
RPMI-8226 = test system: RPMI-8226
RXF 393 = test system: RXF 393
RXF 631 = test system: RXF 631
SF-268 = test system: SF-268
SF-295 = test system: SF-295
SF-539 = test system: SF-539
SK-MEL-28 = test system: SK-MEL-28
SK-MEL-5 = test system: SK-MEL-5
SK-OV-3 = test system: SK-OV-3
SN12C = test system: SN12C
SNB-19 = test system: SNB-19
SNB-75 = test system: SNB-75
SNB-78 = test system: SNB-78
SR = test system: SR
SW-620 = test system: SW-620
TK-10 = test system: TK-10
U-251 = test system: U-251
UACC-257 = test system: UACC-257
UACC-62 = test system: UACC-62
UO-31 = test system: UO-31
XF498 = test system: XF498

c1ccc([S+](c2ccccc2)c2ccc(Sc3ccc([S+](c4ccccc4)c4ccccc4)cc3)cc2)cc1
GI50 (786-0): 43.8 µM (inactive) | GI50 (A498): 44.4 µM (inactive) | GI50 (A549): 9.79 µM (inactive) | GI50 (ACHN): 26.4 µM (inactive) | GI50 (CAKI-1): 75.5 µM (inactive) | GI50 (CCRF-CEM): 19.4 µM (inactive) | GI50 (COLO 205): 17.4 µM (inactive) | GI50 (DLD-1): 29.2 µM (inactive) | GI50 (DMS-114): 3.2 µM (inactive) | GI50 (DMS-273): 19.5 µM (inactive) | GI50 (EKVX): 73.6 µM (inactive) | GI50 (HCC 2998): 20.2 µM (inactive) | GI50 (HCT-116): 21.8 µM (inactive) | GI50 (HCT-15): > 100 µM | GI50 (HL-60): 2.58 µM (inactive) | GI50 (HOP-18): 30.5 µM (inactive) | GI50 (HOP-62): 39.7 µM (inactive) | GI50 (HOP-92): 27.6 µM (inactive) | GI50 (HT-29): 18.2 µM (inactive) | GI50 (IGROV-1): 43.2 µM (inactive) | GI50 (K562): 1.17 µM (inactive) | GI50 (KM-20L2): 16.8 µM (inactive) | GI50 (KM12): 21.3 µM (inactive) | GI50 (LOX IMVI): 18.6 µM (inactive) | GI50 (LXFL 529): 18 µM (inactive) | GI50 (M14): 45.5 µM (inactive) | GI50 (M19-MEL): 18.1 µM (inactive) | GI50 (MOLT-4): 9.73 µM (inactive) | GI50 (Malme-3M): 32.6 µM (inactive) | GI50 (NCI-H226): 25.5 µM (inactive) | GI50 (NCI-H23): 3.06 µM (inactive) | GI50 (NCI-H460): 29.6 µM (inactive) | GI50 (NCI-H522): 12 µM (inactive) | GI50 (OVCAR-3): 10.2 µM (inactive) | GI50 (OVCAR-4): 20.6 µM (inactive) | GI50 (OVCAR-5): 12.3 µM (inactive) | GI50 (OVCAR-8): 20.3 µM (inactive) | GI50 (RPMI-8226): 4.88 µM (inactive) | GI50 (RXF 393): 19.7 µM (inactive) | GI50 (RXF 631): 58.2 µM (inactive) | GI50 (SF-268): 22.3 µM (inactive) | GI50 (SF-295): 25.8 µM (inactive) | GI50 (SF-539): 31.3 µM (inactive) | GI50 (SK-MEL-28): 34.7 µM (inactive) | GI50 (SK-MEL-5): 5.81 µM (inactive) | GI50 (SK-OV-3): 21.9 µM (inactive) | GI50 (SN12C): 17.9 µM (inactive) | GI50 (SNB-19): 7.64 µM (inactive) | GI50 (SNB-75): 19.2 µM (inactive) | GI50 (SNB-78): 27.9 µM (inactive) | GI50 (SR): 6.44 µM (inactive) | GI50 (SW-620): 37.9 µM (inactive) | GI50 (TK-10): 36.2 µM (inactive) | GI50 (U-251): 15.7 µM (inactive) | GI50 (UACC-257): 12.5 µM (inactive) | GI50 (UACC-62): 24 µM (inactive) | GI50 (UO-31): 60 µM (inactive) | GI50 (XF498): 11.4 µM (inactive)

Cc1oc2c(C)c3oc(=O)cc(C)c3cc2c1CNC(=O)[C@@H]1OCCOCCOCCOCCOCCOC1C(=O)O (stereo not given in full)
GI50 (786-0): 21.2 µM (inactive) | GI50 (A498): > 100 µM (inactive) | GI50 (A549): > 100 µM (inactive) | GI50 (ACHN): > 100 µM (inactive) | GI50 (CAKI-1): > 100 µM (inactive) | GI50 (CCRF-CEM): > 100 µM (inactive) | GI50 (COLO 205): > 100 µM (inactive) | GI50 (DLD-1): > 100 µM (inactive) | GI50 (DMS-114): > 100 µM (inactive) | GI50 (DMS-273): > 100 µM (inactive) | GI50 (EKVX): > 100 µM (inactive) | GI50 (HCC 2998): > 100 µM (inactive) | GI50 (HCT-116): > 100 µM (inactive) | GI50 (HCT-15): > 100 µM | GI50 (HL-60): > 100 µM (inactive) | GI50 (HOP-18): > 100 µM (inactive) | GI50 (HOP-62): > 100 µM (inactive) | GI50 (HOP-92): > 100 µM (inactive) | GI50 (HT-29): > 100 µM (inactive) | GI50 (IGROV-1): > 100 µM (inactive) | GI50 (K562): > 100 µM (inactive) | GI50 (KM-20L2): > 100 µM (inactive) | GI50 (KM12): > 100 µM (inactive) | GI50 (LOX IMVI): > 100 µM (inactive) | GI50 (LXFL 529): 8.15 µM (inactive) | GI50 (M14): 12.5 µM (inactive) | GI50 (M19-MEL): > 100 µM (inactive) | GI50 (MOLT-4): > 100 µM (inactive) | GI50 (Malme-3M): > 100 µM (inactive) | GI50 (NCI-H226): > 100 µM (inactive) | GI50 (NCI-H23): > 100 µM (inactive) | GI50 (NCI-H460): > 100 µM (inactive) | GI50 (NCI-H522): > 100 µM (inactive) | GI50 (OVCAR-3): > 100 µM (inactive) | GI50 (OVCAR-4): > 100 µM (inactive) | GI50 (OVCAR-5): > 100 µM (inactive) | GI50 (OVCAR-8): > 100 µM (inactive) | GI50 (RPMI-8226): > 100 µM (inactive) | GI50 (RXF 393): > 100 µM (inactive) | GI50 (RXF 631): 36.1 µM (inactive) | GI50 (SF-268): > 100 µM (inactive) | GI50 (SF-295): > 100 µM (inactive) | GI50 (SF-539): > 100 µM (inactive) | GI50 (SK-MEL-5): > 100 µM (inactive) | GI50 (SK-OV-3): > 100 µM (inactive) | GI50 (SN12C): > 100 µM (inactive) | GI50 (SNB-19): > 100 µM (inactive) | GI50 (SNB-75): > 100 µM (inactive) | GI50 (SNB-78): > 100 µM (inactive) | GI50 (SR): > 100 µM (inactive) | GI50 (SW-620): > 100 µM (inactive) | GI50 (TK-10): > 100 µM (inactive) | GI50 (U-251): > 100 µM (inactive) | GI50 (UACC-257): > 100 µM (inactive) | GI50 (UACC-62): > 100 µM (inactive) | GI50 (UO-31): > 100 µM (inactive) | GI50 (XF498): > 10 µM (inactive)
